Assay [1] has as its system HepG2. Put plainly: Antiproliferative activity against human HepG2 cells after 24 hrs by MTT assay. In kind it is functional, cell-based. Particulars: HepG2, 24 h. For orientation: Formazan colour is commonly taken as a measure of viable cells.
The subject of assay [2] is L02. Put plainly: Antiproliferative activity against human LO2 cells after 24 hrs by MTT assay. The assay is classed as cell-based. The settings on record: L02, 24 h.
Assay [3] deals with HEK-293T. The experiment in a line: Antiproliferative activity against human 293T cells after 24 hrs by MTT assay. In kind it is cell-based.
Assay [4] has as its system MDA-MB-231. The experiment in a line: Antiproliferative activity against human MDA231 cells after 24 hrs by MTT assay. In kind it is functional, cell-based. The settings on record: MDA-MB-231, 24 h.
Assay [5] concerns A549. The experiment in a line: Antiproliferative activity against human A549 cells after 24 hrs by MTT assay. The settings on record: A549, 24 h. The assay is classed as functional, cell-based.
The subject of assay [6] is HeLa. The experiment in a line: Antiproliferative activity against human HeLa cells after 24 hrs by MTT assay. In kind it is functional, cell-based.
The target in assay [7] is [Pyruvate dehydrogenase (acetyl-transferring)] kinase isozyme 1, mitochondrial (Homo sapiens) (UniProt Q15118). Particulars: HeLa, 10 mM.
Description: Inhibition of PDK1 in human HeLa cells assessed as decrease in PDH-E1 alpha p-ser300 expression at 10 mM by Western blot analysis
The target is the same in assay [8]. The settings on record: HeLa, 10 mM. This is another data set of the same source.
Description: Inhibition of PDK1 in human HeLa cells assessed as increase in PDH-E1 alpha expression at 10 mM by Western blot analysis
The target is the same in assay [9]. Particulars: HeLa, 10 mM. The source holds these as a separate data set.
Description: Inhibition of PDK1 in human HeLa cells assessed as decrease in PDH-E1 alpha p-ser232 expression at 10 mM by Western blot analysis
The species named for assay [10] is Homo sapiens. Put plainly: Induction of microtubule polymerization (unknown origin) at 0.5 uM after 24 hrs by immunoblot. (In western blotting, separated proteins are transferred to a membrane and probed.)
Assay [11] deals with HeLa. The experiment in a line: Induction of microtubule polymerization in human HeLa cells assessed as bundle like formation at 0.5 uM after 24 hrs by rhodamine/DAPI staining-based confocal microscopic analysis. The assay is classed as cell-based.
The species entered for assay [12] is Homo sapiens. Put plainly: Inhibition of microtubule polymerization (unknown origin) at 0.5 uM after 24 hrs by immunoblot.
The test system of assay [13] is HeLa. The experiment in a line: Inhibition of microtubule polymerization in human HeLa cells at 0.5 uM after 24 hrs by rhodamine/DAPI staining-based confocal microscopic analysis. In kind it is cell-based.

The source made the active and inactive calls. The calls are words filed in the database; no cut-off is given here.

Regarding `CC(C)=CC[C@@H](OC(=O)CCCC[C@@H]1CCSC(c2ccc(C)cc2)S1)C1=CC(=O)c2c(O)ccc(O)c2C1=O` (stereo partly specified), the IC50 in assay [1] stood at 45.7 µM; in assay [2], 85.6 µM; in assay [3] it was 88.6 µM; in assay [4], 11.9 µM; in assay [5] it was 12.1 µM; in assay [6], 11.5 µM.

Regarding `CC(C)=CC[C@@H](OC(=O)CCCC[C@@H]1CCSC(c2cccc(Br)c2)S1)C1=CC(=O)c2c(O)ccc(O)c2C1=O` (stereo partly specified), the concentration for half-maximal inhibition (IC50) in [1] turned out to be 21.9 µM; in assay [2] it was 93 µM; in [3] it was 102 µM; in assay [4], 26.8 µM; in assay [5], 22.2 µM; in assay [6], 13.3 µM.

Take `CC(C)=CC[C@@H](OC(=O)CCCC[C@@H]1CCSC(c2c(Cl)cccc2Cl)S1)C1=CC(=O)c2c(O)ccc(O)c2C1=O` (stereo partly specified): the IC50 in [1] stood at 14.9 µM; in [2] it was 79.8 µM; in [3] it was 69.9 µM; in assay [4], 29.2 µM; in assay [5], 10.4 µM; in [6] it was 8.95 µM.

As for `CC(C)=CC[C@@H](OC(=O)CCCC[C@@H]1CCSC(c2ccc(C(C)C)cc2)S1)C1=CC(=O)c2c(O)ccc(O)c2C1=O` (stereo partly specified), the 50% inhibitory concentration (IC50) in assay [1] is 25.9 µM; in [2], 85.6 µM; in [3], 108 µM; in assay [4] it was 8.97 µM; in assay [5] it was 19.6 µM; in assay [6], 17.5 µM.

For the compound `CC(C)=CC[C@@H](OC(=O)CCCC[C@@H]1CCSC(c2cccc(C(F)(F)F)c2)S1)C1=CC(=O)c2c(O)ccc(O)c2C1=O` (stereo partly specified), the half-maximal inhibitory concentration (IC50) in [1] stood at 4.53 µM; in assay [2], 136 µM; in assay [3], 83.9 µM; in [4] it was 35.1 µM; in assay [5], 19.6 µM; in [6], 20.2 µM.

Take `CC(C)=CC[C@@H](OC(=O)CCCC[C@@H]1CCSC(c2ccc([N+](=O)[O-])cc2)S1)C1=CC(=O)c2c(O)ccc(O)c2C1=O` (stereo partly specified): the half-inhibitory concentration (IC50) in [1] amounted to 20.4 µM; in assay [2], 96.2 µM; in [3], 95.4 µM; in assay [4], 16.2 µM; in assay [5], 22.2 µM; in [6] it was 26.9 µM.

In the case of `CC(C)=CC[C@@H](OC(=O)CCCC[C@@H]1CCSC(C2CCCCC2)S1)C1=CC(=O)c2c(O)ccc(O)c2C1=O` (stereo partly specified), the IC50 in assay [1] was 28.4 µM; in [2], 108 µM; in assay [3] it was 116 µM; in [4], 19.6 µM; in assay [5] it was 27.2 µM; in [6] it was 21.9 µM.

For the compound `CC(C)=CC[C@@H](OC(=O)CCCC[C@@H]1CCSS1)C1=CC(=O)c2c(O)ccc(O)c2C1=O`, the IC50 in assay [1] turned out to be 17.4 µM; in assay [2], 103 µM; in assay [3] it was 83.5 µM; in assay [4], 25.9 µM; in assay [5] it was 14.6 µM; in [6], 28.9 µM.

As for `COc1ccccc1C1SCC[C@@H](CCCCC(=O)O[C@H](CC=C(C)C)C2=CC(=O)c3c(O)ccc(O)c3C2=O)S1` (stereo partly specified), the IC50 was 26.7 µM in assay [1]; 116 µM in [2]; 79.3 µM in assay [3]; 24.2 µM in [4]; 6.03 µM in assay [5]; 9.96 µM in assay [6].

Take `O=C(O)C(Cl)Cl` [DICHLOROACETIC ACID]: the IC50 in assay [1], in [2], in assay [3], in [4], in assay [5] and in [6] was above 100 µM in each case. In addition, the inhibition result in [7], in assay [8] and in assay [9] was “Active” throughout.

Turning to `CC(C)=CC[C@@H](OC(=O)CCCC[C@@H]1CCSC(c2cccc(Cl)c2Cl)S1)C1=CC(=O)c2c(O)ccc(O)c2C1=O` (stereo partly specified), the IC50 in [1] is 5.08 µM; in assay [2], 119 µM; in assay [3], 97.8 µM; in assay [4], 25.8 µM; in [5], 10.7 µM; in [6], 13.6 µM.

As for `CC(C)=CC[C@@H](OC(=O)CCCC[C@@H]1CCSC(c2ccc(Cl)cc2Cl)S1)C1=CC(=O)c2c(O)ccc(O)c2C1=O` (stereo partly specified), the IC50 in assay [1] was determined as 17.8 µM; in [2] it was 121 µM; in assay [3], 90.1 µM; in [4] it was 28 µM; in assay [5] it was 17.5 µM; in [6], 9.17 µM.

Take `CC(=O)O[C@H]1C(=O)[C@@]2(C)[C@H]([C@H](OC(=O)c3ccccc3)[C@]3(O)C[C@H](OC(=O)[C@H](O)[C@@H](NC(=O)c4ccccc4)c4ccccc4)C(C)=C1C3(C)C)[C@]1(OC(C)=O)CO[C@@H]1C[C@@H]2O`: the outcome in assay [10] and in assay [11] was Active.

Regarding `CC(C)=CC[C@@H](OC(=O)CCCC[C@@H]1CCSC(c2ccccc2Cl)S1)C1=CC(=O)c2c(O)ccc(O)c2C1=O` (stereo partly specified), the IC50 in [1] stood at 11.3 µM; in [2], 95.8 µM; in assay [3] it was 78 µM; in [4] it was 20.6 µM; in assay [5] it was 16.8 µM; in assay [6] it was 16.5 µM.

Regarding `COc1ccc(C2SCC[C@@H](CCCCC(=O)O[C@H](CC=C(C)C)C3=CC(=O)c4c(O)ccc(O)c4C3=O)S2)cc1` (stereo partly specified), the IC50 in assay [1] was determined as 30.1 µM; in [2] it was 94.8 µM; in assay [3], 105 µM; in [4], 18 µM; in assay [5], 20.7 µM; in assay [6] it was 16 µM.

With `CC(C)=CC[C@@H](OC(=O)CCCC[C@@H]1CCSC(c2ccccc2C)S1)C1=CC(=O)c2c(O)ccc(O)c2C1=O` (stereo partly specified), the IC50 in assay [1] stood at 24.3 µM; in assay [2], 89.8 µM; in assay [3], 102 µM; in assay [4], 17.4 µM; in [5], 10 µM; in assay [6] it was 14.9 µM.

For the compound `COc1cc2c(c(OC)c1OC)-c1ccc(OC)c(=O)cc1[C@@H](NC(C)=O)CC2` [COLCHICINE], the IC50 in assay [1] is 4.65 µM; in assay [2], 3.01 µM; in [3], 6.38 µM; in assay [4] it was 3.89 µM; in [5], 4.64 µM; in assay [6], 2.54 µM. Further, the inhibition entry in assay [12] and in assay [13] was “Active” each time.

For `COc1ccc(C2SCC[C@@H](CCCCC(=O)O[C@H](CC=C(C)C)C3=CC(=O)c4c(O)ccc(O)c4C3=O)S2)cc1OC` (stereo partly specified), the 50% inhibitory concentration (IC50) in assay [1] worked out at 4.34 µM; in assay [2], 99.3 µM; in assay [3] it was 116 µM; in [4] it was 16.7 µM; in [5] it was 19.3 µM; in assay [6], 21.9 µM.

As for `CC(C)=CC[C@@H](OC(=O)CCCC[C@@H]1CCSC(c2ccc(Cl)cc2)S1)C1=CC(=O)c2c(O)ccc(O)c2C1=O` (stereo partly specified), the IC50 was 6.69 µM in [1]; 83.6 µM in assay [2]; 64.7 µM in assay [3]; 17.7 µM in assay [4]; 7.42 µM in assay [5]; 21.4 µM in assay [6].

In the case of `CC(C)=CC[C@@H](OC(=O)CCCC[C@@H]1CCSC(c2ccc(C(F)(F)F)cc2)S1)C1=CC(=O)c2c(O)ccc(O)c2C1=O` (stereo partly specified), the IC50 in assay [1] came out at 11.8 µM; in assay [2] it was 90.9 µM; in [3], 73.4 µM; in [4] it was 9.57 µM; in [5], 10.2 µM; in assay [6], 23.4 µM.

One may read the IC50 as the concentration that gives 50% inhibition. A high value points to weaker potency in that assay.

The values are drawn from ChEMBL document CHEMBL4251606, “Design and characterization of α-lipoic acyl shikonin ester twin drugs as tubulin and PDK1 dual inhibitors” (Eur J Med Chem, 2018).
